From paper PMC3388869, “High-affinity multivalent wheat germ agglutinin ligands by one-pot click reaction” (Beilstein Journal of Organic Chemistry, 2012)
Read-outs that look alike come from different tables or passages of the source.

Key:
[1] = biological target: T1, wheat germ agglutinin (WGA) (Triticum aestivum, UniProt P10969); test: enzyme-linked lectin assay (ELLA): inhibition of binding of HRP-labeled WGA to covalently immobilized GlcNAc; parameters: species or system Triticum vulgaris; settings: for β (relative inhibitory potency): referenced to N,N'-diacetylchitobiose (β = 1); for fold lower IC50 value than GlcNAc: relative to GlcNAc
T1 sequence (P10969 1-171 limits assumed): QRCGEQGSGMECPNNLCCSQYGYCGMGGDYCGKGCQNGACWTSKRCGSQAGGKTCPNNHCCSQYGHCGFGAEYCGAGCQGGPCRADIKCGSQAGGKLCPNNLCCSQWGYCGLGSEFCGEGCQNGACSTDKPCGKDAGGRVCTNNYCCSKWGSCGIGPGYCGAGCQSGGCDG
Procedure: Binding potencies of compounds C1–C6, GlcNAc, and N,N’-diacetylchitobiose were determined by an ELLA employing covalently immobilized GlcNAc as a reference ligand, as described recently. GlcNAc-coated microtiter plates were incubated with mixtures of horseradish-peroxidase-labeled WGA (HRP-WGA) and synthetic WGA ligands in varying concentrations. After incubation, the plates were washed and the remaining HRP-WGA bound to the microtiter plates was quantified by a HRP-catalyzed color reaction. From these curves the concentrations at which the binding of HRP–WGA to GlcNAc is reduced by 50% (IC50 values) were determined as a measure of the potency of the synthesized inhibitors (Table 2). Also shown in Table 2 are the relative inhibitory potencies (β values) referenced to N,N’-diacetylchitobiose (β = 1).

WGA = test system: WGA; parameters: method as in PMID 1472499; settings: WGA–ligand interaction; cited from earlier work
[2] = inhibition of binding of HRP-labeled WGA to covalently immobilized GlcNAc, read-out: IC50

Structure (SMILES) | IC50 [1, 2] [µM] | β (relative inhibitory potency) [1] | relative potency per chitobiose residue ([1]; relative to N,N'-diacetylchitobiose, per chitobiose residue) | IC50 ([1]; calculated per contained chitobiose, read-out: IC50 per contained chitobiose) [µM] | fold increased inhibition potency over the best divalent ligand C4 ([1]; relative to C4) | fold lower IC50 value than GlcNAc [1] | association constant K (WGA)
CC(=O)N[C@H]1[C@H](OCc2cn(Cc3cccc(Cn4cc(CO[C@@H]5O[C@H](CO)[C@@H](O[C@@H]6O[C@H](CO)[C@@H](O)[C@H](O)[C@H]6NC(C)=O)[C@H](O)[C@H]5NC(C)=O)nn4)c3)nn2)O[C@H](CO)[C@@H](O[C@@H]2O[C@H](CO)[C@@H](O)[C@H](O)[C@H]2NC(C)=O)[C@@H]1O [C2] | 1.3 | 480 | – | – | – | – | –
CC(=O)N[C@H]1[C@H](OCc2cn(Cc3ccc(Cn4cc(CO[C@@H]5O[C@H](CO)[C@@H](O[C@@H]6O[C@H](CO)[C@@H](O)[C@H](O)[C@H]6NC(C)=O)[C@H](O)[C@H]5NC(C)=O)nn4)cc3)nn2)O[C@H](CO)[C@@H](O[C@@H]2O[C@H](CO)[C@@H](O)[C@H](O)[C@H]2NC(C)=O)[C@@H]1O [C3] | 1.9 | 330 | – | – | – | – | –
CC(=O)N[C@H]1[C@H](OCc2cn(CCCOCCOCCOCCCn3cc(CO[C@@H]4O[C@H](CO)[C@@H](O[C@@H]5O[C@H](CO)[C@@H](O)[C@H](O)[C@H]5NC(C)=O)[C@H](O)[C@H]4NC(C)=O)nn3)nn2)O[C@H](CO)[C@@H](O[C@@H]2O[C@H](CO)[C@@H](O)[C@H](O)[C@H]2NC(C)=O)[C@@H]1O [C5] | 0.72 | – | – | – | – | – | –
CC(=O)N[C@H]1[C@H](OCc2cn(CCN(CCn3cc(CO[C@@H]4O[C@H](CO)[C@@H](O[C@@H]5O[C@H](CO)[C@@H](O)[C@H](O)[C@H]5NC(C)=O)[C@H](O)[C@H]4NC(C)=O)nn3)CCn3cc(CO[C@@H]4O[C@H](CO)[C@@H](O[C@@H]5O[C@H](CO)[C@@H](O)[C@H](O)[C@H]5NC(C)=O)[C@H](O)[C@H]4NC(C)=O)nn3)nn2)O[C@H](CO)[C@@H](O[C@@H]2O[C@H](CO)[C@@H](O)[C@H](O)[C@H]2NC(C)=O)[C@@H]1O [C6] | 0.22 | 2800 | – | 0.66 | 2.8 | 230000 | –
CC(=O)N[C@@H]1[C@@H](O)[C@H](O)[C@@H](CO)O[C@H]1O [GlcNAc, N-acetylglucosamine, reference compound] | 51000 | 1/82 | – | – | – | – | 2 × 10^2 to 1.3 × 10^3 M^–1

More lines, in order of falling IC50 [1, 2], values ahead:

IC50 [1, 2] [µM] | β (relative inhibitory potency) [1] | relative potency per chitobiose residue ([1]; relative to N,N'-diacetylchitobiose, per chitobiose residue) | Structure (SMILES) | IC50 ([1]; calculated per contained chitobiose, read-out: IC50 per contained chitobiose) [µM] | fold increased inhibition potency over the best divalent ligand C4 ([1]; relative to C4) | fold lower IC50 value than GlcNAc [1] | association constant K (WGA)
620 | 1 | – | CC(=O)N[C@H]1[C@H](O[C@H]2[C@H](O)[C@@H](NC(C)=O)C(O)O[C@@H]2CO)O[C@H](CO)[C@@H](O)[C@@H]1O (stereo partly drawn) [N,N'-diacetylchitobiose, reference compound] | – | – | 82 | 5 × 10^3 to 2 × 10^4 M^–1
290 | 2.1 | – | CC(=O)N[C@H]1[C@H](OCc2cn(Cc3ccccc3)nn2)O[C@H](CO)[C@@H](O[C@@H]2O[C@H](CO)[C@@H](O)[C@H](O)[C@H]2NC(C)=O)[C@@H]1O [C1] | – | – | – | –
0.6 | – | 500 | CC(=O)N[C@H]1[C@H](OCc2cn(CCCOCCCCOCCCn3cc(CO[C@@H]4O[C@H](CO)[C@@H](O[C@@H]5O[C@H](CO)[C@@H](O)[C@H](O)[C@H]5NC(C)=O)[C@H](O)[C@H]4NC(C)=O)nn3)nn2)O[C@H](CO)[C@@H](O[C@@H]2O[C@H](CO)[C@@H](O)[C@H](O)[C@H]2NC(C)=O)[C@@H]1O [C4] | – | – | – | –
